GI50 and TGI data for 17 molecules are collected here from PubChem BioAssay (NCI).

Some test systems named below: K-562 leukemia; SNB-75 CNS; SR leukemia; RXF 393 renal; SF-295 CNS; SK-MEL-5 melanoma; SW-620 colon; OVCAR-5 ovarian; RPMI-8226 leukemia; A498 renal.
Common to all, as to test: NCI anticancer screen, dose series, 48 h

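Cultured in 96-well plates, cells were exposed to test compound for 48 hours across five concentrations. The concentration for 50% growth inhibition is given as GI50. At the TGI there is no net growth.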

As for `C[C@H](CCOc1cccc(CC(=O)O)c1)N(Cc1cccc(C(F)(F)F)c1Cl)CC(c1ccccc1)c1ccccc1`, the GI50 was 4.9 µM in the assay on K-562 leukemia; 9.83 µM in the assay with SNB-75 CNS; 5.51 µM with SR leukemia; 4.18 µM in the assay on RXF 393 renal; 4.44 µM in the assay on SF-295 CNS; 3.95 µM in the assay with SK-MEL-5 melanoma. In addition, the GI50 in the assay on SW-620 colon is 5.28 µM; in the assay with OVCAR-5 ovarian, 13.4 µM; with RPMI-8226 leukemia it was 3.48 µM. Also, the TGI with K-562 leukemia is 52.9 µM; with SNB-75 CNS it was 22 µM; in the assay on SR leukemia, 51.6 µM; in the assay on RXF 393 renal, 16.2 µM; in the assay with SF-295 CNS, 18.6 µM; with SK-MEL-5 melanoma, 14.6 µM. In addition, the results for the TGI in the assay with SW-620 colon, in the assay with OVCAR-5 ovarian and in the assay on RPMI-8226 leukemia were 20.7 µM, 28.1 µM and 22.1 µM, respectively.

`CCOC(=O)c1c(C)c2c(n1Cc1ccccc1)CSCC2=O`: the GI50 is 21.7 µM in the assay on K-562 leukemia; 18.4 µM in the assay with SNB-75 CNS; 7.06 µM in the assay on SR leukemia; 16.2 µM in the assay with RXF 393 renal; 18 µM in the assay with SF-295 CNS; 11.6 µM with SK-MEL-5 melanoma. In addition, the values for the GI50 in the assay on SW-620 colon, in the assay with OVCAR-5 ovarian and in the assay on RPMI-8226 leukemia were 17.4 µM, 20.9 µM and 14.4 µM, respectively. For the same molecule, the TGI in the assay on K-562 leukemia is greater than 100 µM; in the assay on SNB-75 CNS, greater than 100 µM; with SR leukemia it was greater than 100 µM; in the assay on RXF 393 renal, 70.6 µM; in the assay with SF-295 CNS, 49.5 µM; in the assay on SK-MEL-5 melanoma, 23.9 µM. Further, the TGI was 47 µM with SW-620 colon, 89.1 µM in the assay with OVCAR-5 ovarian and greater than 100 µM in the assay on RPMI-8226 leukemia.

Turning to `CCSc1nc(N=Cc2ccccc2O)c2cn[nH]c2n1`, the GI50 is 41.6 µM with K-562 leukemia; 7.31 µM in the assay with SR leukemia; 12.9 µM in the assay with RXF 393 renal; 23.9 µM in the assay with SF-295 CNS; 23.8 µM with SK-MEL-5 melanoma; 4.61 µM in the assay with A498 renal. The GI50 with SW-620 colon is 38.4 µM; with OVCAR-5 ovarian, 21.1 µM; with RPMI-8226 leukemia it was 23.2 µM. Besides, the TGI was greater than 100 µM in the assay with K-562 leukemia; greater than 100 µM with SR leukemia; 44.6 µM with RXF 393 renal; 80.2 µM with SF-295 CNS; 65.9 µM in the assay on SK-MEL-5 melanoma; 29.2 µM with A498 renal. Besides, the TGI is greater than 100 µM in the assay on SW-620 colon, 66.9 µM in the assay on OVCAR-5 ovarian and greater than 100 µM in the assay on RPMI-8226 leukemia.

As for `O=c1[nH]c(O)c(C=Nc2ccc(-c3nc4ccccc4o3)cc2)c(=O)[nH]1`, the GI50 was 35 µM in the assay with K-562 leukemia; greater than 100 µM in the assay with SNB-75 CNS; 44.5 µM with SR leukemia; 89 µM with RXF 393 renal; 23.7 µM in the assay on SF-295 CNS; 44.8 µM in the assay on SK-MEL-5 melanoma. Besides, the results for the GI50 in the assay on SW-620 colon, with OVCAR-5 ovarian and in the assay on RPMI-8226 leukemia were 40.6 µM, greater than 100 µM and 27.5 µM, respectively. In addition, the TGI with K-562 leukemia was greater than 100 µM; with SNB-75 CNS, greater than 100 µM; in the assay on SR leukemia, greater than 100 µM; in the assay on RXF 393 renal, greater than 100 µM; in the assay with SF-295 CNS, 68.9 µM; in the assay with SK-MEL-5 melanoma, greater than 100 µM. The TGI in the assay on SW-620 colon, in the assay with OVCAR-5 ovarian and in the assay on RPMI-8226 leukemia was greater than 100 µM throughout.

For `CNc1nc(N)nc(Nc2ccc(I)cc2)c1N=O`, the TGI in the assay on K-562 leukemia, with SNB-75 CNS, with SR leukemia, in the assay on RXF 393 renal, with SF-295 CNS and in the assay on SK-MEL-5 melanoma was greater than 100 µM in each case. The TGI in the assay on SW-620 colon, in the assay with OVCAR-5 ovarian and in the assay with RPMI-8226 leukemia was greater than 100 µM in each case.

On to `CC(=O)N/C(=C\c1ccccc1/C=C(\NC(C)=O)c1nc2cc(C)c(C)cc2[nH]1)c1nc2cc(C)c(C)cc2[nH]1`, for which the TGI was 95.5 µM with K-562 leukemia; greater than 100 µM in the assay with SNB-75 CNS; greater than 100 µM with SR leukemia; 43 µM in the assay on SK-MEL-5 melanoma; greater than 100 µM in the assay on A498 renal; 64.7 µM in the assay with SW-620 colon. Besides, the TGI is 94.6 µM in the assay on OVCAR-5 ovarian and 64.7 µM with RPMI-8226 leukemia.

`O=C1C=C(c2c(O)ccc3ccccc23)c2cc(O)ccc2C1=O`: the TGI in the assay with K-562 leukemia was greater than 100 µM; in the assay with SNB-75 CNS it was 42.6 µM; with SR leukemia, 42.9 µM; with RXF 393 renal, 29.1 µM; in the assay with SF-295 CNS, 34.9 µM; with SK-MEL-5 melanoma, 28.6 µM. Besides, the TGI is 34.3 µM in the assay with SW-620 colon, 35.5 µM in the assay with OVCAR-5 ovarian and greater than 100 µM with RPMI-8226 leukemia.

Consider `COc1ccc(Cl)cc1NC(=O)c1ccc(NC2=C(Cl)C(=O)N(Cc3ccccc3)C2=O)cc1`, for which the GI50 was 6.87 µM in the assay with K-562 leukemia; 2.76 µM with SR leukemia; 21.3 µM in the assay with RXF 393 renal; 36.2 µM with SF-295 CNS; 47.4 µM in the assay with SK-MEL-5 melanoma; greater than 100 µM in the assay on A498 renal. In addition, the GI50 with SW-620 colon is 93 µM; with OVCAR-5 ovarian, greater than 100 µM. The TGI is greater than 100 µM with K-562 leukemia; 9.87 µM with SR leukemia; 79.3 µM in the assay with RXF 393 renal; greater than 100 µM with SF-295 CNS; greater than 100 µM in the assay with SK-MEL-5 melanoma; greater than 100 µM in the assay on A498 renal. The TGI with SW-620 colon and with OVCAR-5 ovarian was greater than 100 µM each time.

With `CN(C)CCNC(=O)Cc1ccccc1Nc1c(Cl)cccc1Cl`, the TGI stood at 37.5 µM in the assay with K-562 leukemia; 27.4 µM in the assay with SNB-75 CNS; 37.7 µM with SR leukemia; 31.9 µM with RXF 393 renal; 30.1 µM in the assay on SF-295 CNS; 30.2 µM with SK-MEL-5 melanoma. The TGI in the assay on SW-620 colon came to 34.5 µM; in the assay on OVCAR-5 ovarian, 24.2 µM; in the assay on RPMI-8226 leukemia, 38.2 µM.

In the case of `c1ccc2c(c1)CCc1c(-c3ccncc3)n[nH]c1-2`, the TGI in the assay with K-562 leukemia is greater than 100 µM; in the assay with SNB-75 CNS, 77.7 µM; with SR leukemia it was 73.8 µM; in the assay on SF-295 CNS, greater than 100 µM; in the assay on SK-MEL-5 melanoma, 32.1 µM; in the assay with A498 renal, 79.8 µM. The TGI in the assay with SW-620 colon was greater than 100 µM; in the assay with OVCAR-5 ovarian, greater than 100 µM; in the assay with RPMI-8226 leukemia, 84.2 µM.

In the case of `COc1cc(C[P+](c2ccccc2)(c2ccccc2)c2ccccc2)cc(OC)c1OC`, the TGI in the assay with K-562 leukemia, in the assay with SNB-75 CNS, in the assay on SR leukemia, in the assay with RXF 393 renal, with SF-295 CNS and in the assay with SK-MEL-5 melanoma was greater than 100 µM throughout. The TGI with SW-620 colon, in the assay with OVCAR-5 ovarian and with RPMI-8226 leukemia was greater than 100 µM each time.

Turning to `CCCN(CCC)c1c([N+](=O)[O-])cc(C(=O)N(CC)CC)cc1[N+](=O)[O-]`, the TGI was greater than 100 µM in the assay with K-562 leukemia; 82.7 µM with SNB-75 CNS; 55.2 µM in the assay on SR leukemia; 63 µM in the assay on RXF 393 renal; greater than 100 µM with SF-295 CNS; 26.8 µM in the assay with SK-MEL-5 melanoma. The TGI in the assay on SW-620 colon amounted to 84.1 µM; in the assay on OVCAR-5 ovarian, 94.3 µM; with RPMI-8226 leukemia, 36.3 µM.

As to `CCOC(=O)C(Br)=C1OC(=O)c2ccccc2-c2ccccc21` (mixture of isomers), the TGI with K-562 leukemia stood at 22.7 µM; in the assay on SNB-75 CNS it was 51 µM; in the assay with SR leukemia, 47.2 µM; in the assay on SF-295 CNS, 54.4 µM; in the assay on SK-MEL-5 melanoma, 35.8 µM; in the assay on SW-620 colon, 35.1 µM. Besides, the TGI with OVCAR-5 ovarian came to 42.6 µM; in the assay with RPMI-8226 leukemia, 38.1 µM.

Turning to `Cc1cc2c(cc1C)[n+](=O)cc(C(=O)C/C(=N/NC(=S)NN)C(=O)Nc1cccc(C(F)(F)F)c1)n2[O-]`, the TGI in the assay with K-562 leukemia, with SNB-75 CNS, with SR leukemia, with SF-295 CNS, with SK-MEL-5 melanoma and in the assay on A498 renal was greater than 100 µM throughout. The TGI with SW-620 colon, in the assay on OVCAR-5 ovarian and in the assay with RPMI-8226 leukemia was greater than 100 µM each time.

For `FC(F)(F)c1ccc2nc(NCc3ccccc3)c(-c3ccccc3)nc2c1`, the TGI in the assay on SNB-75 CNS is greater than 100 µM; in the assay on SR leukemia, 80.8 µM; in the assay on RXF 393 renal it was 71.5 µM; in the assay on SF-295 CNS, greater than 100 µM; with SW-620 colon, greater than 100 µM; in the assay on OVCAR-5 ovarian, greater than 100 µM. In the assay with RPMI-8226 leukemia, this molecule showed a TGI of 98.9 µM.

As for `COC(=O)c1c(C)cc(OC)c(C/C=C(\C)CCCc2coc(C=C(C)C)c2)c1OC`, the TGI in the assay on K-562 leukemia, in the assay on SNB-75 CNS, in the assay on SR leukemia, in the assay with SF-295 CNS, in the assay with SK-MEL-5 melanoma and with SW-620 colon was greater than 100 µM throughout. Moreover, the TGI with OVCAR-5 ovarian and in the assay with RPMI-8226 leukemia was greater than 100 µM each time.

With `CC[C@]1(O)C[C@H]2CN(CCc3c([nH]c4ccccc34)C(C(=O)OC)(c3cc4c(cc3OC)N(C)[C@H]3[C@@](O)(C(=O)OC)[C@H](OC(C)=O)[C@]5(CC)[C@@H]6C[C@@H]6CN6CC[C@]43[C@@H]65)C2)C1` (stereo not given in full), the GI50 in the assay with K-562 leukemia was 0.00266 µM; with SNB-75 CNS, 0.00437 µM; in the assay on SR leukemia it was 0.00211 µM; in the assay with SF-295 CNS it was 0.00233 µM; with SK-MEL-5 melanoma it was 0.00184 µM; with A498 renal, 0.00275 µM. Also, the GI50 in the assay on SW-620 colon was 0.00564 µM; with OVCAR-5 ovarian it was 0.00974 µM; with RPMI-8226 leukemia, 0.00469 µM. The TGI in the assay on K-562 leukemia came to 2.82 µM; in the assay on SNB-75 CNS, 6.36 µM; with SR leukemia it was 3.49 µM; with SF-295 CNS it was 0.393 µM; with SK-MEL-5 melanoma, 0.0313 µM; with A498 renal, 0.012 µM. Besides, the TGI with SW-620 colon is greater than 14.3 µM; in the assay on OVCAR-5 ovarian it was greater than 6.67 µM; in the assay on RPMI-8226 leukemia, 2.07 µM.
